The test system of this assay is 953936-095-R-J2-PDC spheroids with HUVEC/MSC, viability. Kind of assay: Anticancer human tumor 953936-095-R-J2-PDC patient-derived cervical squamous cell carcinoma cell line growth inhibition [PI3K]. Conditions: for viability, T/C: stronger effect = lower value. An excerpt:
Combinatorial screen of targeted agents with the PI3K inhibitors inavolisib, alpelisib, duvelisib, and copanlisib in multi-cell type tumor spheroids
A high-throughput screen of multi-cell type tumor spheroids was designed to identify active combinations of targeted small molecules and PI3K pathway inhibitors. Complex spheroids include a stromal component modeled by human endothelial cells (HUVEC) and fibroblasts modeled by human mesenchymal stem cells (MSCs). The concentration ranges selected for each drug and investigational agent were based upon clinically achievable concentrations if the clinical Cmax of the agent was known.
Compounds. The drugs and investigational agents: inavolisib (NSC800729), alpelisib (NSC765974), duvelisib (NSC772469), copanlisib (NSC816437), ipatasertib (NSC767898), afuresertib (NSC778305), talazoparib (NSC767125), sapanisertib (NSC764658), selumetinib (NSC741078), tovorafenib (DAY101, NSC766906), vemurafenib (NSC761431), ravoxertinib (NSC781343), sotorasib (NSC818433), MRTX1133 (NSC 836407), abemaciclib (NSC 768073), palbociclib (NSC758247), venetoclax (NSC 766270), SY5609 (NSC837396), enzalutamide (NSC755605), and darolutamide (NSC825331), were obtained from the National Cancer Institute (NCI) Developmental Therapeutics Program Chemical Repository. The FDA-approved anticancer drug set is available from the NCI Developmental Therapeutics Program. […] The stock solutions were prepared in dimethyl sulfoxide (DMSO, Sigma-Aldrich, St. Louis, MO, cat. D2650) at 800-fold the tested concentration and stored at -70 degrees C prior to their use. All drugs and investigational agents were tested over a range starting from a high concentration at or near the clinical Cmax and decreasing in half-log increments. If the clinical Cmax for an agent had not been determined, the highest concentration tested was 10 microM.
Cell Culture. All cells were maintained in an incubator at 37 degrees C and 5% CO2 with 95% humidity. The PDC lines were cultured according to standard operating procedures established by the NCI PDMR (https://pdmr.cancer.gov/sops/default.htm). All PDCs were thawed and cultured in Matrigel-coated flasks prepared with a working solution of 1X Ham's F-12 nutrient mix, without supplementation (Invitrogen, Waltham, MA, cat. 11765054), 100 U/mL penicillin-streptomycin (Invitrogen, cat. 15140122), and 2.5% Matrigel (Corning Inc., Corning, NY, cat. 354248) for the first three passages. The 354836-022-R-J1-PDC, 475296-252-R-J1-PDC, and 997726-040-R-J2-PDC lines were cultured in 6A media, which includes advanced DMEM/F-12 (Thermo Fisher Scientific, cat. 12634028), 10 mM HEPES (Thermo Fisher Scientific, cat. 15630080), 1X GlutaMAX supplement (Thermo Fisher Scientific, cat. 35050061), 0.1 mg/mL primocin (InvivoGen, San Diego, CA, cat. ant-pm-2), 10% defined fetal bovine serum, heat inactivated (HyClone Laboratories Inc., Logan, UT, cat. SH30070.03HI), 50% L-WRN conditioned media (ATCC, cat. CRL-3276), 1.25 mM N-Acetyl-L-cysteine (Sigma-Aldrich, cat. A9165), 10 mM nicotinamide (Sigma-Aldrich, cat. N0636), 1X B-27 supplement (Thermo Fisher Scientific, cat. 17504044), 1X N-2 supplement (Thermo Fisher Scientific, cat. 17502048), and 10 microM Y-27632 dihydrochloride (Tocris Bioscience, Bristol, United Kingdom, cat. 1254). The 624824-186-R-J2-PDC line was cultured in 6C/Colon 1B media, which includes all 6A media components plus 50 ng/mL human EGF recombinant protein (Thermo Fisher Scientific, cat. PHG0311). […]

Structures are written as SMILES. Several values for one entry are separate records, joined by “and”; a condition that tells them apart may be missing. Equal entries are not always repeated. Where only a bound is given, the exact number is not on record here.

From PubChem BioAssay AID1963971 (Molecular Pharmacology Branch, DTP, NCI, 2024) come the findings set out here.
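Note: spheroids exposed to compounds for seven days before read-out.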

For the compound `C#Cc1c(F)ccc2cc(O)cc(-c3ncc4c(N5CC6CCC(C5)N6)nc(OCC56CCCN5CC(F)C6)nc4c3F)c12` (stereo unspecified), the viability, T/C (in general, the ratio of treated to control) is 115% [middle of 4 runs] (compound 0.0316 µM); 97.5% [middle of 4 runs] (compound 0.1 µM); 101% [middle of 4 runs] (compound 0.316 µM); 92.4% [middle of 4 runs] (compound 1 µM); 85.2% [middle of 4 runs] (compound 3.16 µM); 81% [middle of 4 runs] (compound 10 µM). Besides, under “curve of compound”, the IC50 (usually the point on the concentration scale where inhibition reaches its midpoint) is above 10000 nM.

As for `C=CC(=O)N1CCN(c2nc(=O)n(-c3c(C)ccnc3C(C)C)c3nc(-c4c(O)cccc4F)c(F)cc23)C(C)C1` (stereo unspecified), the viability, T/C was 93.6% [middle of 4 runs] (compound 0.0316 µM); 100% (2×) and 105% and 96.7% (compound 0.1 µM); 108% [middle of 4 runs] (compound 0.316 µM); 121% [middle of 4 runs] (compound 1 µM); 118% (2×) and 112% and 127% (compound 10 µM). The IC50 (curve of compound) is above 10000 nM.

Consider `CC(Cn1ccc(-c2ccc(C#N)c(Cl)c2)n1)NC(=O)c1cc(C(C)O)[nH]n1` (stereo unspecified), for which the viability, T/C by setting is: (compound 0.0316 µM) 91.2% [middle of 4 runs]; (compound 0.1 µM) 96.5% [middle of 4 runs]; (compound 0.316 µM) 97.1% [middle of 4 runs]; (compound 1 µM) 108% and 101% (2×) and 96.8%; (compound 10 µM) 99.4% (2×) and 105% and 106%. The IC50 (curve of compound) is above 10000 nM.

Turning to `CC1(C)CCC(Nc2ncc(C(F)(F)F)c(-c3c[nH]c4c(P(C)(C)=O)c(C#N)ccc34)n2)CN1` (stereo unspecified), the viability, T/C reads like this: (compound 0.0316 µM) 51.7% [middle of 4 runs]; (compound 0.1 µM) 51.8% [middle of 4 runs]; (compound 0.316 µM) 53.5% [middle of 4 runs]; (compound 1 µM) 53.4% [middle of 4 runs]; (compound 3.16 µM) 55% and 54.4% (2×) and 52.7%; (compound 10 µM) 7.36% [middle of 4 runs].

As for `Cn1ncc(Cl)c1-c1cc(C(=O)NC(CN)Cc2cccc(F)c2)sc1Cl` (stereo unspecified), the viability, T/C was 93.5% [middle of 4 runs] (compound 0.0316 µM); 82.7% [middle of 4 runs] (compound 0.1 µM); 64.7% [middle of 4 runs] (compound 0.316 µM); 37.6% and 37.7% (2×) and 35.5% (compound 1 µM); 21.1% [middle of 4 runs] (compound 3.16 µM); 13.2% and 12.6% (2×) and 13.7% (compound 10 µM). In addition, the IC50 (curve of compound) is 597 nM [middle of 4 runs].

Turning to `Cn1nccc1Nc1nccc(-c2ccn(C(CO)c3ccc(Cl)c(F)c3)c(=O)c2)n1` (stereo unspecified), the viability, T/C was 90.7% [middle of 4 runs] (compound 0.0316 µM); 97.3% [middle of 4 runs] (compound 0.1 µM); 91.1% [middle of 4 runs] (compound 0.316 µM); 90% [middle of 4 runs] (compound 1 µM); 82.7% [middle of 4 runs] (compound 3.16 µM); 77.9% [middle of 4 runs] (compound 10 µM). Further, the IC50 (curve of compound) is above 10000 nM.

In the case of `Cn1cnc2c(F)c(Nc3ccc(Br)cc3Cl)c(C(=O)NOCCO)cc21` + CC(Nc1ccc2c(c1)OCCn1cc(N3C(=O)OCC3C(F)F)nc1-2)C(N)=O, the IC50 is, setting by setting: (curve of first compound, second compound 0.00316 µM) 494 nM; (curve of first compound, second compound 0.01 µM) 279 nM; (curve of first compound, second compound 0.0316 µM) 88.5 nM; (curve of first compound, second compound 0.1 µM) below 9.49 nM; (curve of first compound, second compound 0.316 µM) below 9.49 nM; (curve of first compound, second compound 1 µM) below 9.49 nM. Further, the viability, T/C is 88.3% (second compound 0.00316 µM, first compound 0.00949 µM); 81.4% (second compound 0.00316 µM, first compound 0.03 µM); 66% (second compound 0.00316 µM, first compound 0.0949 µM); 55.7% (second compound 0.00316 µM, first compound 0.3 µM); 43.7% (second compound 0.00316 µM, first compound 0.949 µM); 30.2% (second compound 0.00316 µM, first compound 3 µM). Further, the viability, T/C reads like this: (second compound 0.01 µM, first compound 0.00949 µM) 75.6%; (second compound 0.01 µM, first compound 0.03 µM) 68.5%; (second compound 0.01 µM, first compound 0.0949 µM) 60%; (second compound 0.01 µM, first compound 0.3 µM) 51.5%; (second compound 0.01 µM, first compound 0.949 µM) 35%; (second compound 0.01 µM, first compound 3 µM) 26.3%. Besides, the viability, T/C (second compound 0.0316 µM, first compound 0.00949 µM) is 67.9%; the viability, T/C (second compound 0.0316 µM, first compound 0.03 µM) was 56.6%; the viability, T/C (second compound 0.0316 µM, first compound 0.0949 µM) was 49.7%; the viability, T/C (second compound 0.0316 µM, first compound 0.3 µM) is 42.5%; the viability, T/C (second compound 0.0316 µM, first compound 0.949 µM) is 29.7%; the viability, T/C (second compound 0.0316 µM, first compound 3 µM) is 20.6%. In addition, the viability, T/C reads like this: (second compound 0.1 µM, first compound 0.00949 µM) 46%; (second compound 0.1 µM, first compound 0.03 µM) 41.2%; (second compound 0.1 µM, first compound 0.0949 µM) 38.7%; (second compound 0.1 µM, first compound 0.3 µM) 23.9%; (second compound 0.1 µM, first compound 0.949 µM) 16.1%; (second compound 0.1 µM, first compound 3 µM) 7.95%. Also, the viability, T/C was 28.1% (second compound 0.316 µM, first compound 0.00949 µM); 23% (second compound 0.316 µM, first compound 0.03 µM); 16.6% (second compound 0.316 µM, first compound 0.0949 µM); 11.6% (second compound 0.316 µM, first compound 0.3 µM); 6.22% (second compound 0.316 µM, first compound 0.949 µM); 3.26% (second compound 0.316 µM, first compound 3 µM). Also, the viability, T/C is 18.6% (second compound 1 µM, first compound 0.00949 µM); 14.5% (second compound 1 µM, first compound 0.03 µM); 10.3% (second compound 1 µM, first compound 0.0949 µM); 8.09% (second compound 1 µM, first compound 0.3 µM); 4.74% (second compound 1 µM, first compound 0.949 µM); 1.5% (second compound 1 µM, first compound 3 µM).
